IC50 data for 29 compounds are collected here from patent publication US9845322B2 (Hoffmann-La Roche Inc., priority 2016, dated 2017).

This assay has as its system HBsAg secretion in HepG2.2.15 cells. The assay is described as follows: HBsAg assay (chemiluminescence immunoassay of secreted HBsAg in culture supernatant). Format: cell-based, HBV. The settings on record: concentration at which HBsAg secretion was reduced by 50% compared to the no drug control, read-out: IC50 (HBsAg assay). As for the experimental part:
HepG2.2.15 cells (Acs et al. Proc Natl Acad Sci USA, 84, (1987), 4641-4), a constitutively HBV-expressing cell line were cultured in DMEM+Glutamax-I medium (Invitrogen, Carlsbad, Calif., USA), supplemented with 10% fetal bovine serum (Invitrogen) and G418 (Invitrogen) at a final concentration of 200 mg/L and maintained in 5% CO2 at 37° C.
HepG2.2.15 cells were seeded in duplicate into white, 96-well plates at 1.5×10^4 cells/well. The cells were treated with a three-fold serial dilution series of the compounds in DMSO. The final DMSO concentration in all wells was 1% and DMSO was used as no drug control.
The HBsAg chemiluminescence immunoassay (CLIA) kit (Autobio Diagnostics Co., Zhengzhou, China, Catalog number: CL0310-2) was used to measure the levels of secreted HBV antigens semi-quantitatively. For the detection 50 μL/well culture supernatant was used and HBsAg was quantified using HBsAg chemiluminescence immunoassay (CLIA) kit (Autobio Diagnostics Co., Zhengzhou, China, Catalog number: CL0310-2), 50 μL of the supernatant was transferred to the CLIA assay plate and 50 μL of enzyme conjugate reagent was added into each well. The plates were sealed and gently agitated for 1 hour at room temperature. The supernatant-enzyme-mixture was discarded and wells were washed 6 times with 300 μL of PBS. The residual liquid was removed by plating the CLIA plate […] on absorbent tissue paper. 25 μL of substrates A and B were added to each well. Luminance was measured using a luminometer (Mithras LB 940 Multimode Microplate Reader) after 10 minutes incubation. Dose-response curves were generated and the IC50 value was extrapolated by using the E-WorkBook Suite (ID Business Solutions Ltd., Guildford, UK). The IC50 was defined as the compound concentration (or conditioned media log dilution) at which HBsAg secretion was reduced by 50% compared to the no drug control.
The compounds according to formula I were tested for their capacity to inhibit HBsAg as described herein.

Setting [1] is: Hepatitis B virus, HepG2.2.15, HepG2.2.15 cells.

Where two headings read alike, the source gives them in different places.

For orientation: IC50 means the concentration at which inhibition is half-maximal. On to `COc1cc(N2CCc3nc(-c4ccccn4)ncc3C2C2CC2)cc(F)c1F` (centres unmarked) [Example 18], for which, under setting [1], the concentration for half-maximal inhibition (IC50) is 0.363 µM.
For `CC1c2cnc(-c3ncccn3)nc2CCN1c1cc(F)c(F)c(OCCCCCCN)c1` (single isomer, unassigned; (+)) [Example 61, (+)-6-[2,3-difluoro-5-[5-methyl-2-pyrimidin-2-yl-7,8-dihydro-5H-pyrido[4,3-d]pyrimidin-6-yl]phenoxy]hexan-1-amine], the IC50 (HepG2.2.15 cells) was 3.32 µM.
Turning to `CC1c2cnc(-c3ncccn3)nc2CCN1c1cc(F)c(F)c(OCCCCC(=O)O)c1` (centres unmarked) [Example 63, 5-[2,3-difluoro-5-(5-methyl-2-pyrimidin-2-yl-7,8-dihydro-5H-pyrido[4,3-d]pyrimidin-6-yl)phenoxy]pentanoic acid], under setting [1], the IC50 was 0.447 µM.
Same read-out and setting: the figure for `CC1c2cnc(-c3ncccn3)nc2CCN1c1cc(F)c(F)c(OCCCN2CCOCC2=O)c1` (centres unmarked) [Example 80] is 0.071 µM; for `CC1c2cnc(-c3ncccn3)nc2CCN1c1cc(OCC2CCOCC2)cc(F)n1` (centres unmarked) [Example 151, 6-[6-fluoro-4-(tetrahydropyran-4-ylmethoxy)-2-pyridyl]-5-methyl-2-pyrimidin-2-yl-7,8-dihydro-5H-pyrido[4,3-d]pyrimidine] it is 0.012 µM.
The same measure, in the same setting: the figure for `CC1c2cnc(-c3ccccn3)nc2CCN1c1cc(F)c(F)c(OCCS(C)(=O)=O)c1` (centres unmarked) [Example 26, 6-[3,4-difluoro-5-(2-methylsulfonylethoxy)phenyl]-5-methyl-2-(2-pyridyl)-7,8-dihydro-5H-pyrido[4,3-d]pyrimidine] is 0.078 µM.
`CC1c2cnc(-c3ncccn3)nc2CCN1c1cc(F)c(F)c(OCCCS(C)(=O)=O)c1` (single isomer, unassigned; (-)) [Example 49, (−)-6-[3,4-difluoro-5-(3-methylsulfonylpropoxy)phenyl]-5-methyl-2-pyrimidin-2-yl-7,8-dihydro-5H-pyrido[4,3-d]pyrimidine]: the IC50 (HepG2.2.15 cells) was found to be 0.034 µM.
Regarding `CC1c2cnc(-c3ncccn3)nc2CCN1c1cc(F)cc(NS(C)(=O)=O)n1` (centres unmarked) [Example 212, N-[4-fluoro-6-(5-methyl-2-pyrimidin-2-yl-7,8-dihydro-5H-pyrido[4,3-d]pyrimidin-6-yl)-2-pyridyl]methanesulfonamide], the IC50 under setting [1] came to 0.837 µM.
The same measure, in the same setting: as for `CC1c2cnc(-c3ncccn3)nc2CCN1c1cc(F)c(F)c(OCCCN2CCN(C(=O)OC(C)(C)C)CC2=O)c1` (centres unmarked) [Example 98, tert-butyl 4-[3-[2,3-difluoro-5-(5-methyl-2-pyrimidin-2-yl-7,8-dihydro-5H-pyrido[4,3-d]pyrimidin-6-yl)phenoxy]propyl]-3-oxo-piperazine-1-carboxylate], the figure is 0.372 µM.
With `CC1c2cnc(-c3ccccn3)nc2CCN1c1ccc([N+](=O)[O-])cc1` (single isomer, unassigned; (+)) [Example 2, (+)-5-methyl-6-(4-nitrophenyl)-2-(2-pyridyl)-7,8-dihydro-5H-pyrido[4,3-d]pyrimidine], under “HepG2.2.15 cells”, the IC50 came out at 2.06 µM.
For the compound `CCC1c2cnc(-c3ccccn3)nc2CCN1c1cc(F)c(F)c(OC)c1` (single isomer, unassigned; (+)) [Example 10, (+)-6-(3,4-difluoro-5-methoxy-phenyl)-5-ethyl-2-(2-pyridyl)-7,8-dihydro-5H-pyrido[4,3-d]pyrimidine], the IC50 (HepG2.2.15 cells) was 21.9 µM.
As for `CC1c2cnc(-c3ncccn3)nc2CCN1c1cc(OCCCCCCC(=O)O)cc(F)n1` (single isomer, unassigned; (-)) [Example 155, (−)-7-[[2-fluoro-6-[5-methyl-2-pyrimidin-2-yl-7,8-dihydro-5H-pyrido[4,3-d]pyrimidin-6-yl]-4-pyridyl]oxy]heptanoic acid], under setting [1], the IC50 is 0.012 µM.
The same measure, in the same setting: as for `CC1c2cnc(-c3ccccn3)nc2CCN1c1cc(F)c(F)c(OCCCN)c1` (centres unmarked) [Example 34, 3-[2,3-difluoro-5-[5-methyl-2-(2-pyridyl)-7,8-dihydro-5H-pyrido[4,3-d]pyrimidin-6-yl]phenoxy]propan-1-amine], the figure is 1.71 µM; as for `COc1cc(N2CCc3nc(-c4ncccn4)ncc3C2C)cc(F)c1I` (centres unmarked) [Example 111, 6-(3-fluoro-4-iodo-5-methoxy-phenyl)-5-methyl-2-pyrimidin-2-yl-7,8-dihydro-5H-pyrido[4,3-d]pyrimidine], 0.041 µM; as for `CC1c2cnc(-c3ccccn3)nc2CCN1c1cc(F)c(F)c(OCCCCO)c1` (centres unmarked) [Example 24, 4-[2,3-difluoro-5-[5-methyl-2-(2-pyridyl)-7,8-dihydro-5H-pyrido[4,3-d]pyrimidin-6-yl]phenoxy]butan-1-ol], 0.029 µM.
Same read-out and setting: the figure for `CC1c2cnc(-c3ccccn3)nc2CCN1c1cc(OCC(F)F)cc(F)n1` (centres unmarked) [Example 192, 6-[4-(2,2-difluoroethoxy)-6-fluoro-2-pyridyl]-5-methyl-2-(2-pyridyl)-7,8-dihydro-5H-pyrido[4,3-d]pyrimidine] is 0.03 µM; for `CC1c2cnc(-c3ncccn3)nc2CCN1c1cc(N2CCNCC2)cc(F)n1` (centres unmarked) [Example 208, 6-(6-fluoro-4-piperazin-1-yl-2-pyridyl)-5-methyl-2-pyrimidin-2-yl-7,8-dihydro-5H-pyrido[4,3-d]pyrimidine] it is 0.186 µM; for `CC1c2cnc(-c3ncccn3)nc2CCN1c1cc(F)c(F)c(OCCC2CN(C(=O)OC(C)(C)C)C2)c1` (centres unmarked) [Example 115, tert-butyl 3-[2-[2,3-difluoro-5-(5-methyl-2-pyrimidin-2-yl-7,8-dihydro-5H-pyrido[4,3-d]pyrimidin-6-yl)phenoxy]ethyl]azetidine-1-carboxylate] it is 0.012 µM.
As for `CCC1c2cnc(-c3ccccn3)nc2CCN1c1ccc(S(C)(=O)=O)cc1` (centres unmarked) [Example 4, 5-ethyl-6-(4-methylsulfonylphenyl)-2-(2-pyridyl)-7,8-dihydro-5H-pyrido[4,3-d]pyrimidine], the IC50 under setting [1] was determined as 1.92 µM.
On the same count and under the same terms, as for `CC1c2cnc(-c3ncccn3)nc2CCN1c1cc(OCCCCC(=O)O)cc(F)n1` (single isomer, unassigned; (-)) [Example 157, (−)-5-[[2-fluoro-6-[5-methyl-2-pyrimidin-2-yl-7,8-dihydro-5H-pyrido[4,3-d]pyrimidin-6-yl]-4-pyridyl]oxy]pentanoic acid], the figure is 0.047 µM.
On the same count and under the same terms, the figure for `CNC(=O)CCCOc1cc(N2CCc3nc(-c4ncccn4)ncc3C2C)cc(F)c1F` (centres unmarked) [Example 53, 4-[2,3-difluoro-5-(5-methyl-2-pyrimidin-2-yl-7,8-dihydro-5H-pyrido[4,3-d]pyrimidin-6-yl)phenoxy]-N-methyl-butanamide] is 0.103 µM.
Consider `COc1cc(N2CCc3nc(-c4ccccn4)ncc3C2C)cc(F)c1F` (centres unmarked) [Example 5, 6-(3,4-difluoro-5-methoxy-phenyl)-5-methyl-2-(2-pyridyl)-7,8-dihydro-5H-pyrido[4,3-d]pyrimidine], for which, where the note is “HepG2.2.15 cells”, the IC50 turned out to be 0.038 µM.
Regarding `CC1c2cnc(-c3ncccn3)nc2CCN1c1cc(N(C)C)cc(F)n1` (centres unmarked) [Example 196, 2-fluoro-N,N-dimethyl-6-(5-methyl-2-pyrimidin-2-yl-7,8-dihydro-5H-pyrido[4,3-d]pyrimidin-6-yl)pyridin-4-amine], under “HepG2.2.15 cells”, the IC50 was 0.002 µM.
As to `CC1c2cnc(-c3ccccn3)nc2CCN1c1cc(OCC2CCCO2)cc(F)n1` (centres unmarked) [Example 189, 6-[6-fluoro-4-(tetrahydrofuran-2-ylmethoxy)-2-pyridyl]-5-methyl-2-(2-pyridyl)-7,8-dihydro-5H-pyrido[4,3-d]pyrimidine], the IC50 under setting [1] was 0.04 µM.
As to `CC1c2cnc(-c3ncccn3)nc2CCN1c1cc(F)c(F)c(OCCCC(N)=O)c1` (centres unmarked) [Example 52, 4-[2,3-difluoro-5-(5-methyl-2-pyrimidin-2-yl-7,8-dihydro-5H-pyrido[4,3-d]pyrimidin-6-yl)phenoxy]butanamide], the half-inhibitory concentration (IC50) under setting [1] was found to be 0.11 µM.
As for `CC1c2cnc(-c3ccccn3)nc2CCN1c1ccc([N+](=O)[O-])cc1` (centres unmarked) [Example 1, 5-methyl-6-(4-nitrophenyl)-2-(2-pyridyl)-7,8-dihydro-5H-pyrido[4,3-d]pyrimidine], the IC50 (HepG2.2.15 cells) is 0.186 µM.
Regarding `CC1c2cnc(-c3ccccn3)nc2CCN1c1cc(N2CCCC2)cc(F)n1` (centres unmarked) [Example 224, 6-(6-fluoro-4-pyrrolidin-1-yl-2-pyridyl)-5-methyl-2-(2-pyridyl)-7,8-dihydro-5H-pyrido[4,3-d]pyrimidine], under setting [1], the IC50 came to 0.013 µM.
Still for that read-out and setting: the figure for `COc1cc(N2CCc3nc(-c4ncccn4)ncc3C2C)nc(F)c1Cl` (single isomer, unassigned; (-)) [Example 146, (−)-6-(5-chloro-6-fluoro-4-methoxy-2-pyridyl)-5-methyl-2-pyrimidin-2-yl-7,8-dihydro-5H-pyrido[4,3-d]pyrimidine] is 0.002 µM; for `COc1cc(N2CCc3nc(-c4ccccn4)ncc3C2CCO)cc(F)c1F` (centres unmarked) [Example 38, 2-[6-(3,4-difluoro-5-methoxy-phenyl)-2-(2-pyridyl)-7,8-dihydro-5H-pyrido[4,3-d]pyrimidin-5-yl]ethanol] it is 3.36 µM.
